Measurements taken from patent publication US6770649B2, “1-[1-(hetero)aryl-1-perhydroxyalkylmethyl]-piperazine compounds, process for their preparation and pharmaceutical compositions containing them” (Solvay Pharmaceuticals GmbH, priority 2001, dated 2004).
Where two headings read alike, the source gives them in different places.

Assays:
NK-2 receptors [1] = biological target: T1, NK-2 receptors (Cavia porcellus, UniProt Q64077); assay: Functional NK-2 antagonism on isolated guinea pig gall-bladder preparations (NKA-induced contraction); assay type: cell-based; settings: inhibition of contraction caused by NKA 0.1 μmol/l; two hours' incubation; Pirbright-White guinea pig gall-bladder
T1 construct: the NK-2 receptors present in the gall-bladder preparations; from tissue; host or cells: Pirbright-White guinea pig: isolated gall-bladder (A2); anaesthetised whole animal (A3)
T1 sequence (Q64077 1-402): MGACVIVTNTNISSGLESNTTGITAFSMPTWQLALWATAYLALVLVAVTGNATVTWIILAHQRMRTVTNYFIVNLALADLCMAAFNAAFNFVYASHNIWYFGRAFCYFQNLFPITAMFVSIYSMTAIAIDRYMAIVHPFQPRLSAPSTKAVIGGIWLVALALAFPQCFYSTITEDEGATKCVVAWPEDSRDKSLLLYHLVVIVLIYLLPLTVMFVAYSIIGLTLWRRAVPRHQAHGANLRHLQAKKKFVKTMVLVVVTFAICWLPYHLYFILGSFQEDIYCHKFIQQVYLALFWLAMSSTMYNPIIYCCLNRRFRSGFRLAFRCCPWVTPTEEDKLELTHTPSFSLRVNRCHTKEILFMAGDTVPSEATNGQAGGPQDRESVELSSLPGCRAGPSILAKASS
Procedure: 2. Determination of the Functional Antagonism of the Test Substances on Isolated Guinea Pig Tissue in vitro
The NK-2 receptor-antagonising action of the test substances was determined on isolated gall-bladder preparations from Pirbright-White guinea pigs, held in an oxygen-saturated nutrient solution. To this end, the preparations were fastened on one hand in the nutrient solution to organ holders and on the other hand on a force meter by a thread.
In this test the NK-2 receptors present in the gall-bladder preparations were stimulated with the natural NK-2 receptor agonist neurokinin A (=NKA; 0.1 μmol/l) and the contractions of the preparations caused thereby were measured as contractility in mN (=preliminary value) measured. Then NKA was rinsed out of the preparations with NKA-free solution and the test substances were added in a concentration of 10^−7 mol/l. After two hours' incubation of the preparations with the test substances, the contractions of the preparations then still caused by renewed NKA addition were again measured and the results were given as percentages, relative to the contractions initially measured, caused solely by NKA addition. The concentration of the test substances was increased iteratively in the subsequent experiments as a function of the result in logarithmic whole or half steps, until at least one concentration above or below 50% inhibition of contraction was determined (up to at most 10^−5 mol/l). For each concentration, the average value of inhibition of contraction was calculated from 2 to 4 preparations. In each case, the concentration of half-maximum inhibition (IC50) per test substance was calculated as characteristic variable. In each case the logarithmised value of the IC50 per test substance is given as pIC50 in [mol/l].

NK-2 receptors [2] = biological target: T1, NK-2 receptors; assay: NK-2-receptor-antagonistic effectiveness in vivo in anaesthetised guinea pigs (NKA test stimulus); design: species or system guinea pig; settings: for NK-2-receptor-antagonistic activity of colon motility, late drop in blood pressure and respiratory resistance (in words): cumulative administration i.v., antagonism detected 1 min. after administration had ended
Text: 3. Determination of the NK-2-receptor-antagonistic Effectiveness of the Test Substances in vivo
The NK-2- and NK-1-antagonistic activities of the test substances were investigated in anaesthetised guinea pigs in each case after intravenous (=i.v.) and oral (=p.o.) administration in vivio. With the present test model it is possible to detect both NK-2-antagonistic effects in three different organ systems (respiratory tracts, colon and circulation) and NK-1-antagonistic effects (rapid drop in blood pressure) in an animal simultaneously.
Pirbright-White guinea pigs of a body weight of 500-700 g were anaesthetised with ketamine/xylazine (67/13 mg/kg subcutaneously, initial dose, further doses administered as required). The animals were provided with an intravenous catheter in order to administer the substance and an intra-arterial catheter to measure the blood pressure. The animals were artificially ventilated via a tracheal cannula and the respiratory pressure was recorded by means of a pressure transducer. A balloon was introduced into the distal colon of the animals for manometric recording of colon motility by means of a pressure transducer. Blood pressure, heart rate, respiratory pressure and colonic pressure were measured continuously for each animal and plotted on a recorder and by means of a digital data-processing system. Neurokinin A (=NKA; 200 pmol/animal) was administered i.v. as a bolus as a test stimulus to stimulate the NK-1- and the NK-2 receptors. An addition of NKA of this type results in a great increase in respiratory pressure (bronchoconstriction) and colonic pressure, and in a biphasic drop in blood pressure. The first phase of hypotension (=phase of maximum hypotension within the first minute after administration of NKA) is mediated via NK-1 receptors, since they can be blocked completely by specific NK-1 receptor antagonists. The second phase of delayed hypotension (=phase of maximum hypotension after 2-5 min.) on the other hand is mediated via NK-2 receptors, since they can be blocked by specific NK-2 receptor antagonists. The doses of the test substances are given as ED50 values which each result in a response to the NKA test stimulus which is reduced to 50% of the initial value, as characteristic variables for the individual measurement parameters bronchoconstriction, colonic pressure and change in blood pressure mediated by NK-1 or NK-2.
The antagonistic effects of the test substances were first investigated in cumulative form, the time of the NKA test stimulus being 1 min. after the administration of the respective doses of the test substances had ended. These ED50 values obtained from cumulative dose effect curves are plotted in Table 2 below. In order additionally to detect the variation over time of the antagonistic effects of the test substances, the action of the NKA test stimulus was determined at different times (1, 30, 60, 90, 120, 150 and 180 min.) after administration of the test substances.

[3] = guinea pig, iv, cumulative dosing, NKA stimulus 1 min. after administration, NK-2-mediated late drop in blood pressure, read-out: ED50 Blood pressure, i.v. after 1 min. (cumulative)
[4] = guinea pig, iv, cumulative dosing, NKA stimulus 1 min. after administration, respiratory resistance (bronchoconstriction), read-out: ED50 Respiratory resistance, i.v. after 1 min. (cumulative)
[5] = guinea pig, iv, cumulative dosing, NKA stimulus (200 pmol/animal i.v.) 1 min. after administration, colonic pressure, read-out: ED50 Colonic pressure, i.v. after 1 min. (cumulative)
[6] = guinea pig, po, from AUC over 180 min after administration, NK-2-mediated drop in blood pressure, read-out: ED50 Blood pressure, p.o. AUC over 180 min.
[7] = guinea pig, po, from AUC over 180 min after administration, colonic pressure, read-out: ED50 Colonic pressure, p.o. AUC over 180 min.
[8] = guinea pig, po, from AUC over 180 min after administration, respiratory resistance, read-out: ED50 Respiratory resistance, p.o. AUC over 180 min.
[9] = guinea pig, iv, from AUC of antagonistic effect over 120 min after administration, colonic pressure, read-out: ED50 Colonic pressure, i.v. AUC over 120 min
[10] = guinea pig, iv, from AUC over 120 min after administration, NK-2-mediated drop in blood pressure, read-out: ED50 Blood pressure, i.v. AUC over 120 min
[11] = guinea pig, iv, from AUC over 120 min after administration, respiratory resistance, read-out: ED50 Respiratory resistance, i.v. AUC over 120 min

Row | Compound | IC50 (NK-2 receptors [1]) [nM] | NK-2-receptor-antagonistic activity of colon motility, late drop in blood pressure and respiratory resistance (in words) (NK-2 receptors [2]) | ED50 (NK-2 receptors [2]; [3]) [µmol/kg] | ED50 (NK-2 receptors [2]; [4]) [µmol/kg] | ED50 (NK-2 receptors [2]; [5]) [µmol/kg] | ED50 (NK-2 receptors [2]; [6]) [µmol/kg] | ED50 (NK-2 receptors [2]; [7]) [µmol/kg] | ED50 (NK-2 receptors [2]; [8]) [µmol/kg] | ED50 (NK-2 receptors [2]; [9]) [µmol/kg] | ED50 (NK-2 receptors [2]; [10]) [µmol/kg] | ED50 (NK-2 receptors [2]; [11]) [µmol/kg] | inhibition of the NK-2 mechanisms at the colon compared with bronchoconstrictive or hypotensive NK-2 effects (in words) (NK-2 receptors [2]; comparison of the Table 2 values) | onset and duration of action (in words) (NK-2 receptors [2]; variation over time of the antagonistic effect, guinea pig)
1 | CC(=O)OC[C@@H](OC(C)=O)[C@H](OC(C)=O)[C@@H](OC(C)=O)C(c1ccsc1)N1CCN(CC[C@H](CN(C)C(=O)c2ccccc2)c2ccc(Cl)c(Cl)c2)CC1 (some centres unmarked) [Example 14] | 2 | marked NK-2-receptor-antagonistic activity | 0.063 | 0.078 | 0.042 | 9.4 | 3.2 | 6.7 | – | – | – | – | –
2 | CN(CC(CCN1CCN(C(c2ccco2)[C@H](O)[C@@H](O)[C@H](O)CO)CC1)c1ccc(Cl)c(Cl)c1)C(=O)c1ccccc1 (mixture of isomers) [Example 13] | 0.398 | marked NK-2-receptor-antagonistic activity | 0.08 | 0.048 | 0.019 | 24 | 1.9 | 2 | 0.018 | 0.025 | 0.023 | – | –
3 | CN(C[C@@H](CCN1CCN(C(c2ccsc2)[C@H](O)[C@@H](O)[C@H](O)CO)CC1)c1ccc(Cl)c(Cl)c1)C(=O)c1ccccc1 (stereo partly drawn) [Example 1, N-((2S)-2-(3,4-dichlorophenyl)-4-{4-[(2S,3R,4R)-2,3,4,5-tetrahydroxy-1-(3-thienyl)pentyl]-1-piperazinyl}butyl)-N-methylbenzamide] | 0.158 | marked NK-2-receptor-antagonistic activity | 0.025 | 0.033 | 0.017 | 2.7 | 0.5 | 1.8 | 0.0009 | 0.006 | 0.008 | more effective inhibition of the NK-2 mechanisms at the colon (colon preference) | slow-onset action of long duration
